Test results as given in patent US5900436A, “Substituted indanylidineacetylguanidines, processes for their preparation, their use as medicaments or diagnostics and medicaments containing them” (priority 1996, dated 1999).

How the values were obtained:
Na^+ /H^+ exchanger = target: T1, Na^+ /H^+ exchanger (Oryctolagus cuniculus, UniProt P23791); test: Sodium-Proton exchange inhibition in rabbit erythrocytes; type: cell-based, rabbit (Albino rabbits of New Zealand strain); settings: concentration necessary to reduce the erythrocyte sodium content to 50%; erythrocytes of rabbits fed 2% cholesterol diet six weeks; 37° C., 1 hour, hyperosmolar sucrose buffer with ouabain
T1 construct: increase the exchanger activity in the rabbit erythrocytes; endogenous in cells; host or cells: erythrocytes in blood of cholesterol-fed New Zealand albino rabbits
T1 sequence (P23791 whole entry): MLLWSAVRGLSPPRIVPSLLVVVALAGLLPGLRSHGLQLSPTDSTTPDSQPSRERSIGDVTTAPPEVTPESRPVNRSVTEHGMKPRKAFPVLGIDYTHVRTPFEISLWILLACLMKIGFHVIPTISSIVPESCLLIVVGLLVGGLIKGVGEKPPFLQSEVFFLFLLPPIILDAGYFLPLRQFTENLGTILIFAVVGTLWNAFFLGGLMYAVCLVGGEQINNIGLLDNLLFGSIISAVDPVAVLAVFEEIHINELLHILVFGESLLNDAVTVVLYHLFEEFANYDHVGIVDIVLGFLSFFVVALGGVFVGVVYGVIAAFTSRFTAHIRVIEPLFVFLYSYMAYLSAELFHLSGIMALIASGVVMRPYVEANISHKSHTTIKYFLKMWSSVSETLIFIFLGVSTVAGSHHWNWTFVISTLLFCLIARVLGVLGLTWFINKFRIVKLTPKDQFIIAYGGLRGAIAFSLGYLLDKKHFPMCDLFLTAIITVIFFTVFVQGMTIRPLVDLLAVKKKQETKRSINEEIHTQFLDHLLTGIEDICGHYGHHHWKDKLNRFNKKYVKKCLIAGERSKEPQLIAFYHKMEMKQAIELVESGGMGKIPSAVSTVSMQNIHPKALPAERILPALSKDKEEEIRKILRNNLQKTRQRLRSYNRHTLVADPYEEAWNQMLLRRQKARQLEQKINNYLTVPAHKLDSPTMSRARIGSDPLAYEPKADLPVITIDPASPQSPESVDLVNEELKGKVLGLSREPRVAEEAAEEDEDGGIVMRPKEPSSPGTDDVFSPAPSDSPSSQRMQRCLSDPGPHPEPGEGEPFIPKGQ
Description: Sodium -Proton exchange inhibition in rabbit erythrocytes:
Albino rabbits of New Zealand strain were fed with 2% cholesterol diet for six weeks prior to collecting blood for the determination of Na^+ /H^+ exchanger activity in the erythrocytes. Hypercholesteremia has been reported to increase the exchanger activity in the rabbit erythrocytes (Scholz et al, 1990; Arteriosklerose-Neue Aspekte aus Zellbiologie und Molekulargenetik, Epidemiologie und Klinik; Assmann, G. et al, Eds, Braunschweig, Wiesbaden, Vieweg, 296-302 ). Blood samples were collected from the ear vein and hematocrit was determined. About […] of blood was incubated at 37° C. for 1 hour with hyperosmolar sucrose buffer containing 0.1 mmoles Ouabain in the presence and absence of test sample. After the incubation period, the reaction was stopped by addition of 5 ml of ice cold MgCl2 solution containing 0.1 mmole Ouabain. The erythrocytes were washed three times with 5 ml quantities of MgCl2 solution. They were hemolyzed by the addition of 4 ml of distilled water and the sodium content of the hemolyzate was determined by flame-photometry. The activity of the test compound was determined by its ability to reduce the sodium content of the erythrocyte and was expressed as IC50 which is the concentration necessary to reduce the erythrocyte sodium content to 50%.

rat hearts = settings: isolated rat hearts, cited from earlier work
[1] = Circulation 79, 1257-1263 (1989); cited from earlier work

| Structure (SMILES) | IC50 (Na^+ /H^+ exchanger) [nM] | further results |
| --- | --- | --- |
| Cc1cccc2c1CCC2=CC(=O)N=C(N)N [Compound No. 4, 4-methyl-1-indanylidineacetyl-guanidine-methanesulfonic acid] | 700 |  |
| N=C(N)NC(=O)c1nc(Cl)c(N)nc1N [amiloride] |  | suppression of artificially induced ventricular fibrillation (rat hearts; Eur. Heart J. 9 {supplement 1}: 167 (1988)): suppress an artificially induced ventricular fibrillation completely; antiarrhythmic effect [1]: only slight |
| COc1ccc2c(c1)C(=CC(=O)N=C(N)N)CC2 [compound 6] | 660 |  |
| Cc1ccc2c(c1)CCC2=CC(=O)N=C(N)N [compound 7] | 450 |  |
| CCN(c1nc(N)c(C(=O)N=C(N)N)nc1Cl)C(C)C [ethylisopropylamiloride] |  | potency relative to amiloride against artificially induced ventricular fibrillation (rat hearts): even more potent than amiloride |
